Measured values: US20120093752A1, “Use of Monoamine Oxidase Inhibitors to Improve Epithelial Biology” (priority 2010, published 2012)
Entries after “also recorded” stand apart in the source; their conditions may differ. Counter-ions that a name gives are not always drawn.

Columns and labels:
[1] = test system: MAOB; assay: MAOB production in mice administered hair growth modulators; format: in vivo
[2] = test system: follicles in telogen; assay: Telogen Conversion Assay (TCA), visual melanogenesis grade as indicator of hair growth; format: in vivo, C57Bl/6 mice; details: topical; for hair growth induction in vivo (FIG. 1): compound alone; for hair growth induction in vivo (FIG. 1) / Activity (improved hair growth by inducing anagen): 19 days, C57Bl/6 mice; for timing of hair growth induction: C57BL/6 mice, selegiline 1% or Triac 0.06%, 32 days, FIG. 2
Method: The skin color of mice subjected to treatment is graded visually on a scale from zero to four (0=white skin; 1=light gray skin; 2=blue/black spots; 3=large blue/black region; 4=mostly blue/black skin). As a subject transitions from telogen to anagen, the skin color becomes darker.
Triac (0.06%) was administered as a positive control. Animals were scored for hair growth on the basis of melanogenesis during the treatment period.

[3] = test system: follicles in telogen; assay: Hair growth induction (visual melanogenesis grades) in C3H mice; format: in vivo; details: topical, selegiline 1% or Triac 0.06%, 32 days
Method: Several MAO inhibitors were tested for the ability to improve hair growth using the Telogen Conversion Assay (TCA) described in, e.g., International Patent Publication No. 2000/73265. […] The skin color of mice subjected to treatment is graded visually on a scale from zero to four (0=white skin; 1=light gray skin; 2=blue/black spots; 3=large blue/black region; 4=mostly blue/black skin). As a subject transitions from telogen to anagen, the skin color becomes darker.
The potential of selegiline to induce hair growth in different mouse strains also was studied. Selegiline (1%) was topically administered to a C3H mice and C57BL/6 mice. Triac (0.06%) was used as a positive control. […] Both strains of mice also responded to the MAO inhibitor; however, the strains responded in a manner consistent with natural inter-strain differences in transitioning to anagen. The telogen phase in C3H mice is longer than telogen in C57BL/6 mice.

Structure (SMILES): C[C@]12CCC(=O)C[C@@H]1CC[C@@H]1[C@@H]2CC[C@]2(C)[C@@H](O)CC[C@@H]12 [DHT, dihydrotestosterone]
- MAOB levels ([1]; C57Bl/6 mice, 12.5 mg/day subcutaneous continuous release pellet): increased greater than two fold

Structure (SMILES): C#CCN(C)CCCOc1ccc(Cl)cc1Cl [Clorgiline]
- hair growth induction in vivo (FIG. 1) [2]: induced significant hair growth
- Activity (improved hair growth by inducing anagen) ([2]; dose 1%): YES

Structure (SMILES): C#CCN(C)[C@H](C)Cc1ccccc1 [Selegiline Hydrochloride]
- timing of hair growth induction ([2]; Hydrochloride): induced hair regrowth significantly earlier; also recorded: initiated hair growth significantly sooner than treatment with vehicle
- hair growth induction in vivo (FIG. 1) [2]: Robust hair growth induction
- Activity (improved hair growth by inducing anagen) ([2]; dose 1%): YES
- timing of hair growth induction ([3]; FIG. 2, Hydrochloride): induced hair regrowth significantly earlier; also recorded: initiated hair growth significantly sooner than treatment with vehicle

Structure (SMILES): O=C(O)Cc1cc(I)c(Oc2ccc(O)c(I)c2)c(I)c1 [Triac, Triiodothyroacetic Acid]
- MAOB levels ([1]; C3H mice, 0.06%): Reduced MAOB levels
- timing of hair growth induction [2]: hair growth was induced at the same time for both mouse strains; also recorded: induced hair growth simultaneously
- timing of hair growth induction ([3]; FIG. 2): hair growth was induced at the same time for both mouse strains; also recorded: induced hair growth simultaneously

Structure (SMILES): NCCNC(=O)c1ccc(Cl)cn1 [Lazabemide]
- hair growth induction in vivo (FIG. 1) [2]: not shown to induce hair growth alone

Structure (SMILES): C#CCN(C)Cc1ccccc1 [Pargyline HCL]
- hair growth induction in vivo (FIG. 1) [2]: induced significant hair growth
- Activity (improved hair growth by inducing anagen) ([2]; dose 1%): YES

Structure (SMILES): NNCCc1ccccc1 [Phenelzine]
- hair growth induction in vivo (FIG. 1) [2]: induced significant hair growth
- Activity (improved hair growth by inducing anagen) ([2]; dose 0.5%): YES

Structure (SMILES): C#CCN[C@@H]1CCc2ccccc21 [Rasagiline mesylate]
- hair growth induction in vivo (FIG. 1) [2]: Robust hair growth induction
- Activity (improved hair growth by inducing anagen) ([2]; dose 1%): YES
